One assay has as its system cerebellar neurons. Nature of the assay: Cerebellar microexplants exposed to glutamate and 3-nitropropionic acid; live neurons with neurites counted. The class given is cell-based, rat. The settings on record: for number of cells having neurites: administered simultaneously with glutamate, FIG. 1 / FIG. 2; for glutamate-induced neurotoxicity: low doses (cG-2AllylP: 100 pm to 10 nm). The method, then:
Cover slips were placed into a large Petri dish and washed in 70% alcohol for 5 minutes, then washed with Millipore H2O. The cover slips were air dried, and coated with Poly-D-Lysine (1 mg/ml stock solution in PBS, 90-100 μl) for 2 hours at 34° C.
Postnatal day 8 Wistar rats were used for the study. The rats were sacrificed and placed in ice for 1 minute, decapitated and the cerebellum removed and placed on ice. Cerebellum tissue was placed in 1 ml of 0.65% glucose-supplemented PBS (10 μl 65% stock D (+)glucose/1 ml PBS) in a large Petri dish, chopped up into smaller sections and triturated with a 1 ml insulin syringe via a 23 G (0.4 mm) needle, and then squirted back into the glucose solution in the large Petri dish. The tissue was sieved through (125 μm pore size gauze) and centrifuged (2 minutes at 60 g) twice to exchange the medium into serum-free BSA-supplemented START V medium (Biochrom, Germany). The second centrifugation step was done with 1 ml of START V medium. The microexplants were reconstituted into 500 μl of START V medium and put on ice.
Two hours after PDL-coating, the slides were washed with Millipore H2O and air dried. Each slide was placed into a small Petri dish (diameter: 35 mm) and 40 μl of START V/cell suspension was added. The tissue was incubated for 2 hours at 34° C. (settlement period). START V-medium (1 ml) was then added to the Petri dish and cultivated at 34° C. in the presence of 5% CO2 in air at 100% humidity for 48 hours.
For the study, certain explant cultures were exposed to vehicle (PBS) only. In the first study (Study 1) 10 μl of toxin 1 (L-glutamate-100 mM in Millipore water; final concentration: 1 mM) and 10 μl of toxin 2 (3-nitropropionic acid-50 mM-pH 7-in Millipore water, final concentration: 0.5 mM) was applied simultaneously with the drug to be tested ([…]). In each case, the drugs were left in contact with the explants for the duration of the study.
After explants were exposed to drugs for the study period, cells were then rinsed in PBS and then fixed in increasing concentrations of paraformaldehyde (500 μl of 0.4% PFA was applied; then 1.2% PFA; then 3% PFA and finally 4% PFA (each fixation step: 2-3 minutes). Finally, the microexplants were rinsed in PBS.
Neurons in the explants were then evaluated for morphology (presence of neurites) and counted as live cells per microscopic field. Four fields displaying highest cell density were counted per cover slip and the data presented as mean±standard error of the mean (SEM); n=4 each. Statistical significance was evaluated by using the non-paired Student's t-test.

The subject of assay [1] is rats exposed to hypoxic-ischemic injury (HI). Nature of the assay: Hypoxic-ischemic injury (modified Levine model), histological tissue damage score. The class given is in vivo, rat. The method, then: To determine whether cG-2AllylP might prevent neuronal injury in response to stroke, cardiac arterial bypass graft surgery (CABG) or other hypoxic insults, a series of studies were carried out in rats that had been exposed to hypoxic-ischemic injury (HI). Adult rats (Wistar, 280-310 g, male) were used. The modified Levine model preparation and experimental procedures were used (Rice et al, 1981, Ann. Neural.: 9: 131-141; Guan et al J., 1993, Cereb. Blood Flow Metab.: 13(4): 609-16). These procedures in brief, consist of an HI injury induced by unilateral carotid artery ligation followed by inhalational asphyxia in the animals with an implanted lateral ventricular cannula. A guide cannula was stereotaxically placed on the top of the dura 1.5 mm to the right of the mid-line and 7.5 mm anterior to the interaural zero plane under halothane anaesthesia. The right carotid artery was double ligated two days after the cannulation. After 1 hour recovery from the anaesthesia, each of the rats were placed in an incubator where the humidity (90±5%) and temperature (31°±0.5° C.) were controlled for another hour, then exposed to hypoxia (6% oxygen) for 10 min, The animals were kept in the incubator for an additional 2 hours before treatment.
Nine pairs of rats were treated intracerebral ventricularly (icy) with either cG-2AllylP (2 ng) or its vehicle (normal saline) 2 hours after hypoxic-ischemic insult. Rats in each group were simultaneously infused with cG-2AllylP or its vehicle under light anaesthesia (1.5% halothane) 2 hours after the insult. […]
Coronal sections 8 μm in thickness were cut from the striatum, cerebral cortex and hippocampus and were stained with thionin and acid fuchsin. The histological outcome was assessed at three levels: (1) the mid level of the striatum, (2) where the completed hippocampus first appeared and (3) the level where the ventral horn of the hippocampus just appears. The severity of tissue damage was scored in the striatum, cortex and the CA1-2, CA3, CA4 and dentate gyrus of the hippocampus. […]

A further assay deals with microglia. The settings on record: response to hypoxia-ischemia in rat model; cited from earlier work.
The subject of assay [2] is pyridoxine-intoxicated rats. The assay can be described thus: Pyridoxine-induced peripheral neuropathy: body weight and beam walk errors. The settings on record: for body weight (percentage of baseline weight): pyridoxine 400 mg/kg i.p. b.i.d. days 1-8, vs vehicle, FIG. 5. The class given is in vivo, rat. As to the method:
[…] Sprague-Dawley rats were habituated to walk across a wooden beam (4 cm diameter, 175 cm long, circular cross-section) over a training period of 8 days prior to initiating neuropathic toxicity treatment. Animals were weighed on the day prior to pyridoxine injection (mean body weight 270 g) and were randomized into treatment groups as follows: vehicle control (distilled water, n=16), 3 mg/kg cG-2-allylP (n=16) or 30 mg/kg cG-2-allylP (n=16). All groups received pyridoxine (400 mg/kg i.p.) 2/day for 8 days (days 1-8) and either vehicle or cG-2-allylP (3 or 30 mg/kg, p.o.) 1/day on days 1-10. Body weights were monitored throughout treatment and until study day 28. Beam walking was assessed on days 0 (baseline), 14, 21, and 28. Beam walk errors were assessed according to the method of Callizot (Callizot et al, Pyridoxine-Induced Neuropathy in Rats: a Sensory neuropathy that Responds to 4-methylcatechol, Neurobiol. Dis. 8:626-635 (2001.)) incorporated herein fully by reference. Each rat was scored for 7 steps taken in traversing the beam, as follows: 1=hind-paw placed on the top of the beam (normal); 2=paw contacted the lateral line of the beam; 3=paw overlapping the lateral line on the beam; 4=rat unable to place its feet on the beam. Rats that could walk across the beam therefore recorded a maximum functional deficit score of 28. Rats unable to take 7 steps along the beam scored 30, while rats unable to balance on the beam at all scored 32.
Two-way analysis of variance (ANOVA) was conducted on beam walk performance data, with time and treatment as variables, applying Bonferroni post-hoc tests to assess individual treatment condition differences. Statistical significance was assumed if p<0.05.

Assay [3] concerns cleaved caspase-3 protein. To be noted: rats exposed to hypoxia/ischaemia; cited from earlier work.
In a further assay the test system is diabetic rats. The assay can be described thus: Streptozotocin-induced diabetic neuropathy, tactile allodynia (von Frey hairs). It counts as in vivo, rat. To be noted: 3-30 mg/kg p.o. 1/day for 14 days; STZ-diabetic rats. The method, then:
Rats (225-250 g) are rendered diabetic by an i.p. injection of streptozotocin (STZ; 75 mg/kg). A diabetic condition is confirmed in each rat 10 days later by measurement of tail vein blood glucose levels. Only rats with a final blood glucose level>13.8 mM are considered diabetic and are included in the experiment.
Hyperglycemic, diabetic rats are dosed with cG-2-allylP (3-30 mg/kg, p.o. 1/day) from day 14 until day 28 (for a total of 14 days of treatment). Glucose measurements are taken on day 14 (pre-dose), day 21, day 28 and day 42.
Rats are tested for tactile allodynia on days 14 (pre-dose), and on days 16, 21, 28, 35 and 42 using van Frey hairs. Rats are tested for responsivity to von Frey hairs with calibrated bending forces of 1.5-15 g, to deliver punctate mechanical stimuli of varying intensities. Filaments exerting a force above 15 g are not used. Starting with the lowest filament force (1.5 g), von Frey hairs are applied to the plantar surface of the hind paw, with sufficient force to cause slight bending against the paw, and held for 1 s. Each stimulation is applied five times with an inter-stimulus interval of 5-10 s. Care is taken to stimulate random locations on the plantar surface. A positive response is noted if the paw was robustly and immediately withdrawn. […]

The structures appear in SMILES notation.

Here are results for 3 compounds from US8519127B2, “Cyclic glycyl-2-allyl proline and its use in treatment of peripheral neuropathy” (priority 2003, dated 2013).

In the case of `N[C@@H](CCC(=O)O)C(=O)O` [Glutamate, L-glutamate, reference compound], the “loss of cerebellar neurons having neurites” value in the assay with cerebellar neurons (glutamate 1 mM, compared to vehicle-treated controls, FIG. 1) is about 85%.
Regarding `C=CC[C@]12CCCN1C(=O)CNC2=O` [cG-2-allylP, (8aS)-Allyl-hexahydropyrrolo[1,2-a]pyrazine-1,4-dione], in assay [1] (2 ng icv 2 hours after hypoxic-ischemic insult, histology 5 days after injury, vs vehicle, p<0.001, FIG. 3), the tissue damage score entry is on record as “significantly reduced the tissue damage in each brain region examined”. Also, in assay [1] (2, 4, 20, 100 ng icv 2 hours after insult, all sites and doses other than 100 ng in striatum, FIG. 4), the neuronal damage scores entry is recorded as “lessened the neural damage effects of hypoxia/ischemia”. In addition, the “efficacy by brain region” value in assay [1] (regions with progressive injury such as dentate gyrus and cerebral cortex, FIG. 4) is listed as “increased efficacy in brain regions that experienced progressive injury associated with delayed cell death”. The activation of microglia entry in the assay with microglia was “reduce activation of microglia”. The “body weight (percentage of baseline weight)” value in assay [2] (3 mg/kg p.o. 1/day days 1-10) is “significantly attenuated the effect of pyridoxine on body weight on test day 9”; in assay [2] (3 mg/kg p.o. 1/day days 1-10, listed as cG-2allylP), “greater gain of body weight than in animals treated with pyridoxine alone”; in assay [2] (30 mg/kg p.o. 1/day days 1-10), “significantly attenuate pyridoxine-mediated body weight loss on days 9, 14, 21 and 28”; in assay [2] (30 mg/kg p.o. 1/day days 1-10, listed as cG-2allylP), “greater gain of body weight than in animals treated with pyridoxine alone”. Further, the beam walking errors entry in assay [2] (30 mg/kg p.o. days 1-10, test days 14, 21, 28, p<0.05 vs vehicle, FIG. 6) was “effectively prevented pyridoxine-induced beam walking errors”. Further, the “number of cells having neurites” value in the assay on cerebellar neurons is “significantly increased the numbers of cells having neurites in a dose-dependent manner”. For the same compound, the glutamate-induced neurotoxicity result in the assay with cerebellar neurons was “significant decrease in glutamate-induced neurotoxicity”. Moreover, in assay [3], the “expression of cleaved caspase-3 protein in the cerebral cortex” value is reported as “decreased expression of cleaved caspase-3 protein in the cerebral cortex”. Further, the “pain threshold in response to von Frey hair pressure to hind paws” value in the assay on diabetic rats was “increase the pain threshold”.
As to `C[C@@]12CCCN1C(=O)C1(CCCC1)NC2=O` [Cyclic cyclopentyl-G-2MeP, (8aS)-Methyl-spiro[cyclopentane-1,3(4H)-tetrahydropyrrolo[1,2-a]pyrazine]-1,4(2H)-dione], in the assay on cerebellar neurons, the “number of cells having neurites” value is listed as “significantly increased the number of cells having neurites” and the glutamate-induced neurotoxicity entry is “significant decrease in glutamate-induced neurotoxicity”.
